Legend:
[1] = test system: guinea pig delayed asthma model; assay: Guinea pig delayed asthma model; assay type: in vivo; conditions: Cavia porcellus, oral, 1 hour before OVA inhalation, read-out: ED50 (inhibition of delayed asthma reaction, AUC4-8hr of % sRaw/TV)
Protocol: Hartley male guinea pigs were purchased from SLC, and after quarantining them for 1 week, at the week when the qualantine was finished the first sensitization was carried out by antigen exposure. By using ultrasonic nebulizer (OMRON NE-U12, condition: Vapor amount: maximum, Air: small) 2% (w/v) ovalbumin (OVA, by Sigma-Aldrich) in saline solution was vaporized, and by disposing for 10 minutes, they were first sensitized. At sensitizing, the guinea pigs were fixed on a body holder cartridge for them (by M.I.P.S.), and they were set on disposal chamber holder for 8 guinea pigs (by M.I.P.S.). Additional sensitization was carried out 7 days after the first sensitization as well. […] Breath function was measured by a general breath function measurement system (by M.I.P.S.) using Double flow plestymograph method (Penny A. Hutson et al. Am Rev Respir Dis 1988 137, 548-557). The breath function was measured before reaction induction (pre-value), 5 minutes, 1, 2, 3, 4, 5, 6, 7, and 8 hours after completion of reaction induction. By using one of parameters, sRaw/TV (specific airway resistance/once breath) as an index of improvement of respiratory function, variation rate per individual of sRaw/TV (% sRaw/TV) against pre-value between each measured times was calculated. Plotting % sRaw/TV with time, Area Under the Curve (AUC4-8hr) from 4 hours to 8 hours after reaction induction was calculated. […]

[2] = test system: mast cells derived from murine bone marrow; assay: Histamine release from antigen-stimulated murine bone marrow-derived mast cells; assay type: cell-based, mouse; conditions: DNP-HSA 100 ng/ml, 20 minutes; IgE-sensitized mast cells
From the text: (§1) According to almost the same method as the method by Razin et al. (J. Immunol. 132, 1479-1486 (1984)), murine bone marrow cells were differentiated into mast cells. Namely, bone marrow cells from femur of a female BALB/c mouse (purchased from Charles River Japan) were collected, and cultured in RPMI 1640 culture medium, containing 10% […] FBS prepared by Invitrogen, and 50% WEHI-3 cell culture supernatant. After culture for more than three weeks and confirming differentiation into mast cells under microscope, the cells were subjected to the following experiments.
Mast cells were suspended in the concentration of 2×10^6 cell/ml, and thereto was added 0.1 μg/ml anti-mouse DNP-Age antibody (SPE7, by Sigma-Aldrich). The cell suspension was incubated overnight in a CO2 incubator (5% CO2, 37° C.), and passively sensitized. […] The cell suspension (80 μl) were added to a 96-well culture plate (by Asahi-techno-glass Co. Ltd.), and then a test sample in DMSO solution or 2.5% DMSO solution only (10 μl) was added. After the plate was reinsulated in a CO2 incubator for 10 minutes, to stimulate, 10 μl of 1 μg/ml of antibody (DNP-HSA, by Sigma-Aldrich, final concentration of antigen 100 ng/ml) was added to each well. […] After terminating the reaction by putting the plate on ice, histamine concentration of the supernatant was measured. […]

[3] = test system: mast cells derived from murine bone marrow; assay: Cytokine (TNF-α, IL-13) release from antigen-stimulated murine bone marrow-derived mast cells; assay type: cell-based, mouse; conditions: DNP-HSA 3 ng/ml, 4 hours
From the text: as §1
(§2) Mast cells were suspended in the concentration of 2×10^6 cell/ml, and thereto was added 0.1 μg/ml anti-mouse DNP-Age antibody (SPE7, by Sigma-Aldrich). The cell suspension was incubated overnight in a CO2 incubator (5% CO2, 37° C.), and passively sensitized. […] After terminating the reaction by putting the plate on ice, histamine concentration of the supernatant was measured. […]
This experiment was conducted in almost the same method as the experiment on histamine release except that the final concentration of antigen (DNP-HSA) was 3 ng/ml, and reaction hours after addition of the antigen were 4 hours. The concentrations of TNF-α, and IL-13 in the supernatant were measured by using Enzyme-linked immunoassay kit (Quantikine (reg. trademark) Mouse TNF-α/TNFSF1A and IL-13 Immunoassay, by R&D systems).

[4] = test system: mast cells derived from murine bone marrow; assay: Cys-LT release from antigen-stimulated murine bone marrow-derived mast cells; assay type: cell-based, mouse; conditions: DNP-HSA 10 ng/ml; IgE-sensitized mast cells
From the text: as §1, §2
This experiment was conducted in the almost same method as the experiment of histamine release except that the final concentration of antigen (DNP-HSA) was 10 ng/ml. The concentration of […] in supernatant was measured by using Cysteinyl-Leukotriene EIA Kit (by Cayman Chemical).

[5] = test system: guinea pig rhinitis model; assay: Nasal cavity resistance change (sRaw) in guinea pig rhinitis model; assay type: in vivo; conditions: oral
Protocol: Referring to the report (74th Japanese Pharmacological Society (2001), Abstract number P-258, Establishment delayed rhinitis model by a guinea pig and effect of polysulfonic acidified hyaluronic acid, Masaki Matsudo, Junichi Fuchigami et al.), the following evaluation was conducted.
A saline solution (1 ml) containing OVA (50 mg) and aluminum hydroxide gel (1 mg) (by PIERCE) was percuteneously administered to a male Hartley guinea pig (from Kyudo Co. Ltd.) on back collum to make active sensitization.
SMP-028 was orally administered for 15 days starting from sensitization once a day (5 ml/body weight (kg)). The drug was orally administered before 1 hour on the sensitized day or on the antibody-challenged day. To saline solution challenged group (saline group) and control group was orally administered 0.5% MC as well. To dexamethasone group (dex. group) was orally administered the drug before 16 hours and 2 hours of antibody challenge. […]
By using a general respiratory function analysis system (PULMOS-I, by M.I.P.S), nasal cavity resistance of guinea big under palinesthesia was measured in accordance with the method of Double flow plestymograph. Because antibody challenge region was restricted to nose part, sRaw which was analyzed by computer and outputted (specific airway resistance) was served as an index of nasal cavity resistance. Before antibody nasal challenge, 10 minutes, 2, 3, 4, 5, 6 and 7 hours after the challenge, each sRaw per animal was once measured, and average of 100 breathes was made sRaw at each measured time. From the sRaw value by using analysis soft on a general respiratory function analysis system (WinPUL13 ver. 1.21) and using the calculation formula (sRaw increased rate (%) during each measuring times=100×(sRaw−sRaw before challenge during each measuring times)/sRaw before challenge), sRaw change rate was calculated. […] AUC3-7hr was calculated by trapezoid (echelon) method. Furthermore, from IAR and LAR in medium control group and each test group, inhibiting rate (%) on each test group against medium control group was calculated.

guinea pig eosinophiles = assay: Release of prostaglandin D2 and thromboxane B2 from PAF-induced guinea pig eosinophiles; assay type: cell-based; conditions: PAF C-16 10^-7M, 10 minutes
Protocol: In accordance with almost the same as the method of Sugasawa et al. (Agents and Actions 37, 233-237 (1992)), eosinophiles were separated and purified from abdominal of a male Hartley guinea pig (from SLC) and the cell concentration was adjusted to 1.25×10^7 cell/ml with modified hanks solution. The cell suspension (80 μl) were added to a 96-well culture plate (by Asahi-techno-glass Co. Ltd.), and then a test sample in DMSO solution or 2.5% DMSO solution only (10 μl) was added. After the plate was preincubated in a CO2 gas incubator for 10 minutes (5% CO2, at 37° C.), thereto was added Platelet Activating Factor (PAF C-16, by Cayman Chemical) 10 μl (final concentration of PAF C-16: 10−7M), and the mixture was further incubated in a CO2 gas incubator for 10 minutes. The concentrations of thromboxane B2 and prostaglandin in the supernatant were measured by using immunoassay kit (Thromboxane B2 EIA kit, Prostaglandin D2-MOX EIA kit, by Cayman Chemical).

[6] = test system: guinea pig rhinitis model; assay: Inflammatory mediators (TNF, LTE4) in nasal cavity lavage fluid of guinea pig rhinitis model; assay type: in vivo; conditions: 8 hours after antigen nasal challenge
Protocol: Eight hours after antigen nasal challenge, by intraperitoneally administering pentobarbital sodium (Nembutal (reg. trade name), by Dainippon Sumitomo Pharma) 30 mg/body weight (kg) to anesthetize, the animal was fixed at the back. Opening bronchial, a cannula was inserted into a lung site to continue breath, and fixed by knotting. After stopping the channel of oral cavity and nasal cavity, from a part of opened bronchia to a side of nasal cavity a cannula was inserted, and knotted, and to the cannula was connected syringe pump. A saline solution was refluxed in the nasal cavity at flow speed (1 ml/minute) for 10 minutes, and the refluxed solution was recovered to get nasal cavity lavage fluid, NCLF). NCLF was centrifuged (1710.5×g (3000 rpm), 4° C., 10 minutes), and the supernatant was freezed at −80° C., and subjected to experiment of Example 5.
The supernatant of NCLF obtained in Example 4 was freezed at −80° C. and preserved. After thawing the sample, the concentration of LTE4 was measured by immuno assay kit (Leukotriene E4 EIA kit, by Cayman Chemical). The concentration of TNF was measured by bioassay method using L929 cells (from Dainippon Sumitomo Pharma) (David H., et al., J. Allergy Clin. Immunol. 89, 958-967 (1992)). Using recombinant human TNF-α (by PeproTech) as a standard, the result was shown by potency of human TNF-α cytotoxicity.

[7] = once a day for 15 days, OVA nasal challenge

CNC(=O)NCCn1c(-c2ccc(N3CCOCC3)cc2)csc1=Nc1ccc(F)cc1 [Compound 2, reference compound]
ED50 [1]: 0.69 mg/kg

CNC(=O)NCCn1c(-c2ccc(N3CCOCC3)cc2)csc1=Nc1cccc(F)c1 [SMP-028, N-{2-[2-[(3-Fluorophenyl)imino]-4-(4-morpholin-4-ylphenyl)-1,3-thiazol-3(2H)-yl]ethyl}-N′-methylurea]
ED50 [1]: 0.44 mg/kg | release of histamine from mast cells [2]: inhibited | release of IL-13 from mast cells [3]: inhibited | release of TNF-α from mast cells [3]: inhibited | release of Cys-LT from mast cells [4]: inhibited | efficacy on immediate and delayed nasal congestion reaction compared with dexamethasone ([5]; 30 mg/kg): efficacy comparative to dexamethasone | delayed nasal congestion reaction (LAR, AUC3-7hr of sRaw increased rate) [5, 7]: dose-dependently inhibited | immediate nasal congestion reaction (IAR, sRaw increased rate 10 minutes after challenge) [5, 7]: dose-dependently inhibited | release of prostaglandin D2 from eosinophiles (guinea pig eosinophiles): concentration-dependently inhibited | release of thromboxane B2 from eosinophiles (guinea pig eosinophiles): concentration-dependently inhibited | production of LTE4 in nasal cavity (NCLF) ([6]; EIA): showed a tendency and activity of inhibition | production of TNF in nasal cavity (NCLF) ([6]; L929 bioassay): showed a tendency and activity of inhibition

From patent US20090124622A1, “Medicament Containing a Thiazole Derivative as an Active Ingredient” (priority 2006, published 2009)
